Values quoted from earlier work in publication PMC10866072, “Design, synthesis, molecular modelling and biological evaluation of novel 6-amino-5-cyano-2-thiopyrimidine derivatives as potent anticancer agents against leukemia and apoptotic inducers” (Journal of Enzyme Inhibition and Medicinal Chemistry, 2024).

Assays:
mutant EGFRT790M = tested on: mutant EGFRT790M; set-up: method as in PMID 32959865; settings: cited from earlier work
[1] = tested on: HCT-116, HepG-2, MCF-7, and A549 cells; set-up: method as in PMID 32959865; settings: cited from earlier work
caspase-3 in HepG-2 = tested on: caspase-3 in HepG-2; set-up: method as in PMID 32959865; settings: cited from earlier work
EGFRWT = tested on: EGFRWT; set-up: method as in PMID 32959865; settings: cited from earlier work
tumour cell lines = tested on: tumour cell lines; set-up: method as in PMID 32027179; settings: broad spectrum antitumor activity, cited from earlier work

| SMILES | IC50 (mutant EGFRT790M) [µM] | activity relative to erlotinib [1] | increase of caspase-3 level compared to the control (caspase-3 in HepG-2) [times] | IC50 (EGFRWT) [µM] | TGI (total growth inhibition) (tumour cell lines) [µM] | GI50 (tumour cell lines; read-out: GI50 (median growth inhibition)) [µM] |
| --- | --- | --- | --- | --- | --- | --- |
| CCCCSC1=NC(c2ccccc2)=C(C#N)C(Nc2ccccn2)N1 (stereo not drawn) [Compound XIV] | 4.03 | 4.5- to 8.4 fold | 6.5 | 0.09 |  |  |
| N#CC1=C(c2ccc(F)cc2)N=C(N/N=C/c2c[nH]c3ccccc23)NC1N1CCOCC1 (stereo not drawn) [Compound XVII] |  |  |  |  | 28.66 | 6.15 |
